System: Geobacillus stearothermophilus
Assay: Lethality study of NO2 external sterilization on spiked pre-filled syringes
Type: cell-based
Experimental: At least some of the backstops illustrated in the figures were tested in a lethality study. For example, pre-filled syringes were “spiked” with between 1×10^6 and 6×10^6 CFU (e.g., between 1,000,000 and 6,000,000 CFU) of Geobacillus stearothermophilus before sterilization cycles. As a more specific example, the backstop and barrel portions of the prefilled syringes were spiked with the 1-6×10^6 CFU of Geobacillus stearothermophilus. As used herein, the term “CFU” refers to “Colony-Forming Unit”, which is a unit used to estimate the number of viable bacteria or fungal cells in a sample (where “viable” is the ability to multiply via binary fission under controlled conditions). Geobacillus stearothermophilus (previously Bacillus stearothermophilus) is a rod-shaped, gram-positive bacterium and a member of the division Firmicutes. The bacterium is a thermophile and is widely distributed in soil, hot springs, ocean sediment, and is a potential cause of spoilage in food products. The spiked pre-filled syringes were then sterilized using various sterilization parameters to measure the lethality of the sterilization process to evaluate the Sterility Assurance Level (SAL). The pre-filled syringes were spiked with biological indicators or direct inoculation, as is discussed in more detail below.
For each recipe number, five samples (or at least 5 test locations on one or more samples) were tested. […] For example, the target lethality for this test was a Sterility Assurance Level (SAL) of […]. In other words, the target lethality for this test was 6 logs reduction in the number of bacteria present (before sterilization vs. after sterilization). As a more specific example, for Recipe Number 1, one of the five samples tested reached this target lethality for the backstop area (Col. “Spiked Backstop”, row corresponding with Recipe Number 1), but all five of the samples tested reached this target lethality for the barrel area (Col. “Spiked Barrel”, row corresponding with Recipe Number 1). It should be noted that the spiked backstop test results for Recipe Nos. 1-4 (utilizing the backstop 20 shown in FIGS. 2A-2H) were tested via direct inoculation whereas the spiked backstop test results for Recipe Nos. 5-14 (utilizing alternative backstop 120) were tested via biological indicators. It also should be noted that “-” symbols indicate that no data is reported for those parameters/samples. The testing method variance aside, the samples tested utilizing backstops with protrusions achieved target lethality at a much higher rate than the samples utilizing the backstop without protrusions. As discussed above, the ridges minimize and/or prevent occluded spaces and instead permit the sterilization agent to completely or substantially reach various components of the pre-filled syringe, particularly the backstop and flange areas.

[O]N=O [NO2, Nitrogen Dioxide]
2/5: Spiked Backstop: samples out of 5 reaching target lethality (6 logs reduction) (Recipe 4: 20 Torr, NO2 10 mg/L, 80% RH, dwell 10 min, 4 pulses, 35 aerations, backstop 20, direct inoculation)
5/5: Spiked Barrel: samples out of 5 reaching target lethality (6 logs reduction) (Recipe 1: 100 Torr, NO2 10 mg/L, 75% RH, dwell 10 min, 2 pulses, 24 aerations, PFS with backstop 20) | Spiked Barrel: samples out of 5 reaching target lethality (6 logs reduction) (Recipe 2: 300 Torr, NO2 10 mg/L, 75% RH, dwell 10 min, 2 pulses, 35 aerations, PFS with backstop 20) | Spiked Barrel: samples out of 5 reaching target lethality (6 logs reduction) (Recipe 3: 100 Torr, NO2 20 mg/L, 80% RH, dwell 20 min, 4 pulses, 24 aerations, PFS with backstop 20) | Spiked Barrel: samples out of 5 reaching target lethality (6 logs reduction) (Recipe 4: 20 Torr, NO2 10 mg/L, 80% RH, dwell 10 min, 4 pulses, 35 aerations, PFS with backstop 20) | Spiked Barrel: samples out of 5 reaching target lethality (6 logs reduction) (Recipe 5: 20 Torr, NO2 10 mg/L, 75% RH, dwell 10 min, 8 pulses, 28 aerations, PFS with alternative backstops) | Spiked Backstop: samples out of 5 reaching target lethality (6 logs reduction) (Recipe 5: 20 Torr, NO2 10 mg/L, 75% RH, dwell 10 min, 8 pulses, 28 aerations, alternative backstops, biological indicators) | Spiked Backstop: samples out of 5 reaching target lethality (6 logs reduction) (Recipe 6: 20 Torr, NO2 20 mg/L, 80% RH, dwell 20 min, 4 pulses, 24 aerations, alternative backstops, biological indicators) | Spiked Backstop: samples out of 5 reaching target lethality (6 logs reduction) (Recipe 7: 20 Torr, NO2 10 mg/L, 80% RH, dwell 20 min, 4 pulses, 24 aerations, alternative backstops, biological indicators) | Spiked Backstop: samples out of 5 reaching target lethality (6 logs reduction) (Recipe 8: 20 Torr, NO2 10 mg/L, 80% RH, dwell 10 min, 4 pulses, 24 aerations, alternative backstops, biological indicators) | Spiked Backstop: samples out of 5 reaching target lethality (6 logs reduction) (Recipe 9: 20 Torr, NO2 10 mg/L, 80% RH, dwell 10 min, 2 pulses, 24 aerations, alternative backstops, biological indicators) | Spiked Barrel: samples out of 5 reaching target lethality (6 logs reduction) (Recipe 10: 20 Torr, NO2 10 mg/L, 80% RH, dwell 10 min, 1 pulse, 24 aerations, PFS with alternative backstops) | Spiked Backstop: samples out of 5 reaching target lethality (6 logs reduction) (Recipe 10: 20 Torr, NO2 10 mg/L, 80% RH, dwell 10 min, 1 pulse, 24 aerations, alternative backstops, biological indicators) | Spiked Backstop: samples out of 5 reaching target lethality (6 logs reduction) (Recipe 11: 20 Torr, NO2 5 mg/L, 80% RH, dwell 10 min, 1 pulse, 24 aerations, alternative backstops, biological indicators) | Spiked Barrel: samples out of 5 reaching target lethality (6 logs reduction) (Recipe 12: 20 Torr, NO2 5 mg/L, 80% RH, dwell 10 min, 2 pulses, 24 aerations, PFS with alternative backstops) | Spiked Backstop: samples out of 5 reaching target lethality (6 logs reduction) (Recipe 12: 20 Torr, NO2 5 mg/L, 80% RH, dwell 10 min, 2 pulses, 24 aerations, alternative backstops, biological indicators) | Spiked Barrel: samples out of 5 reaching target lethality (6 logs reduction) (Recipe 13: 20 Torr, NO2 5 mg/L, 80% RH, dwell 5 min, 2 pulses, 24 aerations, PFS with alternative backstops) | Spiked Backstop: samples out of 5 reaching target lethality (6 logs reduction) (Recipe 13: 20 Torr, NO2 5 mg/L, 80% RH, dwell 5 min, 2 pulses, 24 aerations, alternative backstops, biological indicators) | Spiked Barrel: samples out of 5 reaching target lethality (6 logs reduction) (Recipe 15: 500 Torr, NO2 5 mg/L, 80% RH, dwell 5 min, 2 pulses, 70 aerations, PFS with alternative backstops) | Spiked Backstop: samples out of 5 reaching target lethality (6 logs reduction) (Recipe 15: 500 Torr, NO2 5 mg/L, 80% RH, dwell 5 min, 2 pulses, 70 aerations, alternative backstops, biological indicators)
1/5: Spiked Backstop: samples out of 5 reaching target lethality (6 logs reduction) (Recipe 1: 100 Torr, NO2 10 mg/L, 75% RH, dwell 10 min, 2 pulses, 24 aerations, backstop 20, direct inoculation)
0/5: Spiked Backstop: samples out of 5 reaching target lethality (6 logs reduction) (Recipe 2: 300 Torr, NO2 10 mg/L, 75% RH, dwell 10 min, 2 pulses, 35 aerations, backstop 20, direct inoculation) | Spiked Backstop: samples out of 5 reaching target lethality (6 logs reduction) (Recipe 3: 100 Torr, NO2 20 mg/L, 80% RH, dwell 20 min, 4 pulses, 24 aerations, backstop 20, direct inoculation)
4/5: Spiked Barrel: samples out of 5 reaching target lethality (6 logs reduction) (Recipe 11: 20 Torr, NO2 5 mg/L, 80% RH, dwell 10 min, 1 pulse, 24 aerations, PFS with alternative backstops)

— US12233177B2, “Method for external sterilization of drug delivery device” (AMGEN INC., priority 2019, dated 2025)
